Experimental data from PubChem BioAssay (NCI).
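Values below derive from 48-hour exposures of cells grown in 96-well plates, with endpoints linearly interpolated between the two concentrations bracketing the appropriate inhibition level. TGI: total growth inhibition.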

Key:
Assay in all cases: DTP human tumour cell line panel, 48 h
786-0 renal = test system: 786-0 renal
A498 renal = test system: A498 renal
ACHN renal = test system: ACHN renal
CAKI-1 renal = test system: CAKI-1 renal
CCRF-CEM leukemia = test system: CCRF-CEM leukemia
COLO 205 colon = test system: COLO 205 colon
DMS 114 small cell lung = test system: DMS 114 small cell lung
DMS 273 small cell lung = test system: DMS 273 small cell lung
EKVX NSCLC = test system: EKVX NSCLC
HCC-2998 colon = test system: HCC-2998 colon
HCT-116 colon = test system: HCT-116 colon
HCT-15 colon = test system: HCT-15 colon
HOP-62 NSCLC = test system: HOP-62 NSCLC
HOP-92 NSCLC = test system: HOP-92 NSCLC
HT29 colon = test system: HT29 colon
IGROV1 ovarian = test system: IGROV1 ovarian
K-562 leukemia = test system: K-562 leukemia
KM12 colon = test system: KM12 colon
LOX IMVI melanoma = test system: LOX IMVI melanoma
LXFL 529 NSCLC = test system: LXFL 529 NSCLC
M14 melanoma = test system: M14 melanoma
MALME-3M melanoma = test system: MALME-3M melanoma
MOLT-4 leukemia = test system: MOLT-4 leukemia
NCI-H226 lung = test system: NCI-H226 lung
NCI-H23 lung = test system: NCI-H23 lung
NCI-H460 lung = test system: NCI-H460 lung
NCI-H522 lung = test system: NCI-H522 lung
OVCAR-3 ovarian = test system: OVCAR-3 ovarian
OVCAR-4 ovarian = test system: OVCAR-4 ovarian
OVCAR-5 ovarian = test system: OVCAR-5 ovarian
OVCAR-8 ovarian = test system: OVCAR-8 ovarian
RXF 393 renal = test system: RXF 393 renal
SF-268 CNS = test system: SF-268 CNS
SF-295 CNS = test system: SF-295 CNS
SF-539 CNS = test system: SF-539 CNS
SK-MEL-2 melanoma = test system: SK-MEL-2 melanoma
SK-MEL-28 melanoma = test system: SK-MEL-28 melanoma
SK-MEL-5 melanoma = test system: SK-MEL-5 melanoma
SK-OV-3 ovarian = test system: SK-OV-3 ovarian
SN12C renal = test system: SN12C renal
SNB-75 CNS = test system: SNB-75 CNS
SNB-78 CNS = test system: SNB-78 CNS
SR leukemia = test system: SR leukemia
SW-620 colon = test system: SW-620 colon
TK-10 renal = test system: TK-10 renal
U251 CNS = test system: U251 CNS
UACC-257 melanoma = test system: UACC-257 melanoma
UACC-62 melanoma = test system: UACC-62 melanoma
UO-31 renal = test system: UO-31 renal
XF 498 CNS = test system: XF 498 CNS

`COc1cc(Nc2nc3cc(C(F)(F)F)ccc3nc2C)cc(OC)c1OC` was tested, and the TGI (786-0 renal) was 24.8 µM, the TGI (A498 renal) was 18.8 µM and the TGI (ACHN renal) was 20.8 µM. It also gave a TGI (CAKI-1 renal) of 20.8 µM, a TGI (CCRF-CEM leukemia) of 24.3 µM and a TGI (COLO 205 colon) of 25.3 µM. It also gave a TGI (DMS 114 small cell lung) of 23.8 µM, a TGI (DMS 273 small cell lung) of 30 µM and a TGI (EKVX NSCLC) of 30.6 µM. It also gave a TGI (HCC-2998 colon) of 12.6 µM, a TGI (HCT-116 colon) of 21.1 µM and a TGI (HCT-15 colon) of 12.2 µM. The TGI (HOP-62 NSCLC) was 30.6 µM, the TGI (HOP-92 NSCLC) was 0.95 µM and the TGI (HT29 colon) was 13 µM. The TGI (IGROV1 ovarian) was 32 µM, the TGI (K-562 leukemia) was 20.1 µM and the TGI (KM12 colon) was 21.5 µM. It also gave a TGI (LOX IMVI melanoma) of 10.9 µM, a TGI (LXFL 529 NSCLC) of 21.7 µM and a TGI (M14 melanoma) of 21.3 µM. It also gave a TGI (MALME-3M melanoma) of 26.6 µM, a TGI (MOLT-4 leukemia) of 31 µM and a TGI (NCI-H226 lung) of 22.8 µM. For the same compound, the TGI (NCI-H23 lung) was 23.2 µM, the TGI (NCI-H460 lung) was 17.7 µM and the TGI (NCI-H522 lung) was 25 µM. For the same compound, the TGI (OVCAR-3 ovarian) was 30.9 µM, the TGI (OVCAR-4 ovarian) was 34 µM and the TGI (OVCAR-5 ovarian) was 26.7 µM. The TGI (OVCAR-8 ovarian) was 24.5 µM, the TGI (RXF 393 renal) was 17.9 µM and the TGI (SF-268 CNS) was 33.5 µM. The TGI (SF-295 CNS) was 4.91 µM, the TGI (SF-539 CNS) was 25.4 µM and the TGI (SK-MEL-2 melanoma) was 23.6 µM. The TGI (SK-MEL-28 melanoma) was 25.3 µM, the TGI (SK-MEL-5 melanoma) was 25.2 µM and the TGI (SK-OV-3 ovarian) was 30.5 µM. It also gave a TGI (SN12C renal) of 23 µM, a TGI (SNB-75 CNS) of 39 µM and a TGI (SNB-78 CNS) of 25.9 µM. It also gave a TGI (SR leukemia) of 30.3 µM, a TGI (SW-620 colon) of 26.6 µM and a TGI (TK-10 renal) of 23.3 µM. It also gave a TGI (U251 CNS) of 22.4 µM, a TGI (UACC-257 melanoma) of 21.4 µM and a TGI (UACC-62 melanoma) of 13.3 µM. For the same compound, the TGI (UO-31 renal) was 12.6 µM and the TGI (XF 498 CNS) was 8.77 µM.
